Test results from US12357631B2 (priority 2018, dated 2025).
pEC50: −log10 of the molar value.

Each molecule was assayed against PB2 (Influenza A virus, UniProt P03428) (assay: biochemical).
PB2, sequence (P03428 whole entry, looked up): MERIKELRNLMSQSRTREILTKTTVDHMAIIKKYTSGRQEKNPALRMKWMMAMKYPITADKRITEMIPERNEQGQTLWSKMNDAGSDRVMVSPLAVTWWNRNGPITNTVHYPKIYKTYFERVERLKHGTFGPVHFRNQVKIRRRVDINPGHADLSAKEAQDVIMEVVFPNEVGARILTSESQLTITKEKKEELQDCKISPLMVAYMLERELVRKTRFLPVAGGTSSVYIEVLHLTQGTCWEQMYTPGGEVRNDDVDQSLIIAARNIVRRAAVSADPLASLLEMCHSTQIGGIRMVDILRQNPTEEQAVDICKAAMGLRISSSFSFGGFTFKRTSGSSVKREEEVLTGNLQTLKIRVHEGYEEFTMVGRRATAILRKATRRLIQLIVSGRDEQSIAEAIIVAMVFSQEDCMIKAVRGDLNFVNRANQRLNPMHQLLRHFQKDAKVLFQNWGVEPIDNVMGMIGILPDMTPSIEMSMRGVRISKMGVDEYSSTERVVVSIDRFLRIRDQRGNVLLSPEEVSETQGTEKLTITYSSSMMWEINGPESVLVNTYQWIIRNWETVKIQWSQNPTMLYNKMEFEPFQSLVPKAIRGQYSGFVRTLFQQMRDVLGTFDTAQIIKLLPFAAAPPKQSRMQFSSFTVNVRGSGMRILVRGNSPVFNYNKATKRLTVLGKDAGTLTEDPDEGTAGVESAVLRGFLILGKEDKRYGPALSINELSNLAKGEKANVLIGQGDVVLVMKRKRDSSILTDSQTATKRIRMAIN
Format: binding
Molecule `C[C@@H](NC(=O)OCc1ccnc(C(=O)N[C@@H]2CCC[C@H](Nc3nc(-c4c[nH]c5ncc(F)cc45)ncc3F)C2)c1)C(=O)O` [Compound A141] has a pEC50 greater than 5.30.
`CN(CCOCCOCCOCCN)C(=O)N[C@@H]1CCC[C@H](Nc2nc(-c3c[nH]c4ncc(F)cc34)ncc2F)C1` [Compound A173] showed a pEC50 of 4.00 to 4.30.
`O=C(O)CCOCCOCCOCCNC(=O)N[C@H]1CCC[C@@H](Nc2nc(-c3c[nH]c4ncc(F)cc34)ncc2F)C1` [Compound A172] gave a pEC50 of 4.60 to 5.30.
With `CCOCCOCCCCCN(C(=O)N[C@@H]1CCC[C@H](Nc2nc(-c3c[nH]c4ncc(Cl)cc34)ncc2Cl)C1)C(C)C` [Compound A249] the pEC50 was less than 4.00.
In the case of `CCCOCCCCCCCN(C)C(=O)N[C@@H]1CCC[C@H](Nc2nc(-c3c[nH]c4ncc(F)cc34)ncc2F)C1` [Compound A236], the pEC50 was 4.00 to 4.30.
Molecule `CCOC1CCCCC1OCCCCCN(C)C(=O)N[C@H]1CCC[C@@H](Nc2nc(-c3c[nH]c4ncc(F)cc34)ncc2F)C1` (stereo partly drawn) [Compound A245] has a pEC50 of less than 4.00.
For `O=C(CNC(=O)OCc1ccnc(C(=O)N[C@H]2CCC[C@@H](Nc3nc(-c4c[nH]c5ncc(F)cc45)ncc3F)C2)c1)Nc1ccccc1C(=O)O` [Compound A129], the pEC50 was greater than 5.30.
With `O=C(N[C@H]1CCC[C@@H](Nc2nc(-c3c[nH]c4ncc(F)cc34)ncc2F)C1)c1cc(-c2ccccc2)ccn1` [Compound A54] the pEC50 was 4.60 to 5.30.
`CCOCc1ccnc(C(=O)N[C@H]2CCC[C@@H](Nc3nc(-c4c[nH]c5ncc(F)cc45)ncc3F)C2)c1` [Compound A43] gave a pEC50 of 4.60 to 5.30.
`O=C(O)CCC(=O)N1CCC[C@H](Nc2nc(-c3c[nH]c4ncc(F)cc34)ncc2F)C1` [Compound C5] showed a pEC50 greater than 5.30.
`CCOCCOCCCCCN1CC(=O)N([C@@H]2CCC[C@H](Nc3nc(-c4c[nH]c5ncc(F)cc45)ncc3F)C2)C1=O` [Compound A5] showed a pEC50 of less than 4.00.
`CCCCc1ccnc(C(=O)N[C@H]2CCC[C@@H](Nc3nc(-c4c[nH]c5ncc(F)cc45)ncc3F)C2)c1` [Compound A42] gave a pEC50 of less than 4.00.
`CCc1cccc(OCCOCc2ccnc(C(=O)N[C@H]3CCC[C@@H](Nc4nc(-c5c[nH]c6ncc(F)cc56)ncc4F)C3)c2)c1` [Compound A72] showed a pEC50 of 4.30 to 4.60.
For `CCCCCOCCOCC(=O)N[C@H]1CCC[C@@H](Nc2nc(-c3c[nH]c4ncc(F)cc34)ncc2F)C1` [Compound A277], the pEC50 was less than 4.00.
Work on `O=C(N[C@H]1CCC[C@@H](Nc2nc(-c3c[nH]c4ncc(F)cc34)ncc2F)C1)N1Cc2ccccc2C1` [Compound A3] yielded a pEC50 of 4.60 to 5.30.
Molecule `CCOC(=O)CN1CCC[C@H](Nc2nc(-c3c[nH]c4ncc(F)cc34)ncc2F)C1` [Compound C11] has a pEC50 of 4.30 to 4.60.
For `O=C(N[C@H]1CCC[C@@H](Nc2nc(-c3c[nH]c4ncc(F)cc34)ncc2F)C1)c1cc(COCCCCCOCc2ccncc2)ccn1` [Compound A103], the pEC50 was less than 4.00.
`CCOCCOCCCCCN(C)C(=O)N(C)[C@H]1CCC[C@@H](Nc2nc(-c3c[nH]c4ncc(F)cc34)ncc2F)C1` [Compound A241] showed a pEC50 of less than 4.00.
For `O=C(N[C@H]1CCC[C@@H](Nc2nc(-c3c[nH]c4ncc(F)cc34)ncc2F)C1)N1CCc2ccccc2C1` [Compound A2], the pEC50 was less than 4.00.
`Cc1ccc(CNC(=O)OCc2ccnc(C(=O)N[C@H]3CCC[C@@H](Nc4nc(-c5c[nH]c6ncc(F)cc56)ncc4F)C3)c2)cc1` [Compound A138] was tested, and the pEC50 was less than 4.00.
`O=C(NCc1ccc2c(c1)OCO2)OCc1ccnc(C(=O)N[C@H]2CCC[C@@H](Nc3nc(-c4c[nH]c5ncc(F)cc45)ncc3F)C2)c1` [Compound A130] showed a pEC50 of less than 4.00.
In the case of `CCOCCOCCCC1CCCN(C(=O)N[C@@H]2CCC[C@H](Nc3nc(-c4c[nH]c5ncc(F)cc45)ncc3F)C2)C1` (stereo partly drawn) [Compound A4], the pEC50 was 4.00 to 4.30.
In the case of `CCOCCOCCCC1CCN(C(=O)N[C@@H]2CCC[C@H](Nc3nc(-c4c[nH]c5ncc(F)cc45)ncc3F)C2)C1` (stereo partly drawn) [Compound A7], the pEC50 was 4.60 to 5.30.
For `CCC(CC)OCCOCCCc1ccnc(C(=O)N[C@@H]2CCC[C@H](Nc3nc(-c4c[nH]c5ncc(F)cc45)ncc3F)C2)c1` [Compound A40], the pEC50 was less than 4.00.
`CCOCCCc1ccnc(C(=O)N[C@@H]2CCC[C@H](Nc3nc(-c4c[nH]c5ncc(F)cc45)ncc3F)C2)c1` [Compound A38] was tested, and the pEC50 was 4.30 to 4.60.
`COC(=O)N[C@H]1CCC[C@@H](Nc2nc(-c3c[nH]c4ncc(F)cc34)ncc2F)C1` [Compound A286] was tested, and the pEC50 was 4.30 to 4.60.
In the case of `CCOCCOCCCCCN(C(=O)N[C@@H]1CCC[C@H](Nc2nc(-c3c[nH]c4ncc(Cl)cc34)ncc2F)C1)C(C)C` [Compound A248], the pEC50 was less than 4.00.
`O=C(NCc1ccc(C(=O)O)cc1)OCc1ccnc(C(=O)N[C@@H]2CCC[C@H](Nc3nc(-c4c[nH]c5ncc(F)cc45)ncc3F)C2)c1` [Compound A97] showed a pEC50 greater than 5.30.
`CCOc1ccccc1OCCCc1ccnc(C(=O)N[C@@H]2CCC[C@H](Nc3nc(-c4c[nH]c5ncc(F)cc45)ncc3F)C2)c1` [Compound A29] was tested, and the pEC50 was less than 4.00.
Molecule `COc1ccccc1CNC(=O)OCc1ccnc(C(=O)N[C@H]2CCC[C@@H](Nc3nc(-c4c[nH]c5ncc(F)cc45)ncc3F)C2)c1` [Compound A122] has a pEC50 of less than 4.00.
Work on `CCOCCOCCc1cccc(N(C)C(=O)N[C@H]2CCC[C@@H](Nc3nc(-c4c[nH]c5ncc(F)cc45)ncc3F)C2)c1` [Compound A212] yielded a pEC50 of less than 4.00.
Work on `O=C(N[C@H]1CCC[C@@H](Nc2nc(-c3c[nH]c4ncc(F)cc34)ncc2F)C1)c1ccccn1` [Compound A35] yielded a pEC50 of 4.00 to 4.30.
For `CN(CCOCCOCCOCCO)C(=O)N[C@@H]1CCC[C@H](Nc2nc(-c3c[nH]c4ncc(F)cc34)ncc2F)C1` [Compound A169], the pEC50 was 4.00 to 4.30.
For `O=C(O)CNCCNC(=O)OCc1ccnc(C(=O)N[C@@H]2CCC[C@H](Nc3nc(-c4c[nH]c5ncc(F)cc45)ncc3F)C2)c1` [Compound A110], the pEC50 was 4.60 to 5.30.
Work on `CCCCOCCCCc1ccnc(C(=O)N[C@H]2CCC[C@@H](Nc3nc(-c4c[nH]c5ncc(F)cc45)ncc3F)C2)c1` [Compound A31] yielded a pEC50 of less than 4.00.
Molecule `C[C@H](NC(=O)OCc1ccnc(C(=O)N[C@@H]2CCC[C@H](Nc3nc(-c4c[nH]c5ncc(F)cc45)ncc3F)C2)c1)C(=O)O` [Compound A134] has a pEC50 greater than 5.30.
In the case of `CCOc1ccc(CNC(=O)OCc2cc(C(=O)N[C@H]3CCC[C@@H](Nc4nc(-c5c[nH]c6ncc(F)cc56)ncc4F)C3)ncc2F)cc1` [Compound A147], the pEC50 was less than 4.00.
`O=C(N[C@@H]1CCC[C@H](Nc2nc(-c3c[nH]c4ncc(F)cc34)ncc2F)C1)c1ccc(-c2ccccc2)nc1` [Compound A63] gave a pEC50 of 4.60 to 5.30.
With `CCOCCOc1cccc(CCNC(=O)N[C@@H]2CCC[C@H](Nc3nc(-c4c[nH]c5ncc(F)cc45)ncc3F)C2)c1` [Compound A178] the pEC50 was less than 4.00.
Work on `Cc1ccc(C(=O)N[C@H]2CCC[C@@H](Nc3nc(-c4c[nH]c5ncc(F)cc45)ncc3F)C2)cn1` [Compound A56] yielded a pEC50 greater than 5.30.
`Cc1ccnc(C(=O)N[C@H]2CCC[C@@H](Nc3nc(-c4c[nH]c5ncc(F)cc45)ncc3F)C2)c1` [Compound A53] was tested, and the pEC50 was 4.60 to 5.30.
In the case of `O=C(N[C@H]1CCC[C@@H](Nc2nc(-c3c[nH]c4ncc(F)cc34)ncc2F)C1)c1cncc(F)c1` [Compound A57], the pEC50 was 4.60 to 5.30.
`CCCCCOCCCCCN(C)C(=O)N[C@@H]1CCC[C@H](Nc2nc(-c3c[nH]c4ncc(F)cc34)ncc2F)C1` [Compound A201] gave a pEC50 of less than 4.00.
`O=C(N[C@H]1CCC[C@@H](Nc2nc(-c3c[nH]c4ncc(F)cc34)ncc2F)C1)N1CCc2ccccc21` [Compound A14] was tested, and the pEC50 was 4.00 to 4.30.
`CCOC(=O)CCOCCOCCOCC(=O)N1CCC[C@@H](Nc2nc(-c3c[nH]c4ncc(F)cc34)ncc2F)C1` [Compound C6] was tested, and the pEC50 was 4.60 to 5.30.
With `CCOCCCc1cccc(CCN(C)C(=O)N[C@H]2CCC[C@@H](Nc3nc(-c4c[nH]c5ncc(F)cc45)ncc3F)C2)c1` [Compound A220] the pEC50 was 4.00 to 4.30.
In the case of `CCCCCOCCOCCN(C)C(=O)N[C@@H]1CCC[C@H](Nc2nc(-c3c[nH]c4ncc(F)cc34)ncc2F)C1` [Compound A177], the pEC50 was less than 4.00.
Molecule `CCCCCOCCOCC(=O)N[C@@H]1CCC[C@H](Nc2nc(-c3c[nH]c4ncc(F)cc34)ncc2F)C1` [Compound A272] has a pEC50 of 4.00 to 4.30.
Molecule `CCOCCOCCOCCNC(=O)N(CCOCCOCC)[C@@H]1CCC[C@H](Nc2nc(-c3c[nH]c4ncc(F)cc34)ncc2F)C1` [Compound B4] has a pEC50 of less than 4.00.
In the case of `O=C(NCc1ccccc1)OCc1ccnc(C(=O)N[C@@H]2CCC[C@H](Nc3nc(-c4c[nH]c5ncc(F)cc45)ncc3F)C2)c1` [Compound A91], the pEC50 was less than 4.00.
`CCOCCOCCCCCN(CC(N)=O)C(=O)N[C@@H]1CCC[C@H](Nc2nc(-c3c[nH]c4ncc(F)cc34)ncc2F)C1` [Compound A210] gave a pEC50 of 4.00 to 4.30.
With `O=C(NCc1cccc(Oc2ccccc2)c1)OCc1ccnc(C(=O)N[C@H]2CCC[C@@H](Nc3nc(-c4c[nH]c5ncc(F)cc45)ncc3F)C2)c1` [Compound A119] the pEC50 was less than 4.00.
In the case of `CCOCCOCCOCCNC(=O)N(CCc1ccccc1)[C@@H]1CCC[C@H](Nc2nc(-c3c[nH]c4ncc(F)cc34)ncc2F)C1` [Compound B2], the pEC50 was 4.00 to 4.30.
With `O=C(N[C@@H]1CCC[C@H](Nc2nc(-c3c[nH]c4ncc(F)cc34)ncc2F)C1)c1cncc(-c2ccccc2)c1` [Compound A67] the pEC50 was less than 4.00.
With `O=C(NCCc1ccc(Oc2ccccc2)cc1)OCc1ccnc(C(=O)N[C@H]2CCC[C@@H](Nc3nc(-c4c[nH]c5ncc(F)cc45)ncc3F)C2)c1` [Compound A100] the pEC50 was less than 4.00.
`CCOCCCCCCCCN(C)C(=O)N[C@H]1CCC[C@@H](Nc2nc(-c3c[nH]c4ncc(F)cc34)ncc2F)C1` [Compound A211] showed a pEC50 of less than 4.00.
`CCCOCCOCCCCN(C)C(=O)N[C@H]1CCC[C@@H](Nc2nc(-c3c[nH]c4ncc(F)cc34)ncc2F)C1` [Compound A243] was tested, and the pEC50 was less than 4.00.
`O=COCCOCCNC(=O)OCc1ccnc(C(=O)N[C@H]2CCC[C@@H](Nc3nc(-c4c[nH]c5ncc(F)cc45)ncc3F)C2)c1` [Compound A115] was tested, and the pEC50 was greater than 5.30.
`CCOCCOCc1cc(-c2ccnc(C(=O)N[C@H]3CCC[C@@H](Nc4nc(-c5c[nH]c6ncc(F)cc56)ncc4F)C3)c2)ccc1F` [Compound A113] was tested, and the pEC50 was less than 4.00.
`CCOCCOCCCCCNC(=O)N[C@@H]1CCC[C@H](Nc2nc(-c3c[nH]c4ncc(F)cc34)ncc2F)C1` [Compound A180] showed a pEC50 of less than 4.00.
With `O=C(NCc1ccncc1)OCc1ccnc(C(=O)N[C@H]2CCC[C@@H](Nc3nc(-c4c[nH]c5ncc(F)cc45)ncc3F)C2)c1` [Compound A108] the pEC50 was 4.60 to 5.30.
`CCOCCOCCCCCN(C)C(=O)N1CCC(C(=O)Nc2nc(-c3c[nH]c4ncc(F)cc34)ncc2F)C1` (stereo not drawn) [Compound C9] was tested, and the pEC50 was less than 4.00.
Work on `CCOCCOCCCCCN(Cc1cncnc1)C(=O)N[C@H]1CCC[C@@H](Nc2nc(-c3c[nH]c4ncc(F)cc34)ncc2F)C1` [Compound A209] yielded a pEC50 of less than 4.00.
